Patent US8362001B2, “Azetidinyl diamides as monoacylglycerol lipase inhibitors” (Janssen Pharmaceutica NV, priority 2009, dated 2013)
Residue numbers refer to the chain shown, from its start.

Tests used:
[1] = target: T1, purified wild type MGL (wt-MGLL 6H-11-313) (Homo sapiens, UniProt Q99685); assay: biochemical
T1 sequence (Q99685 1-303): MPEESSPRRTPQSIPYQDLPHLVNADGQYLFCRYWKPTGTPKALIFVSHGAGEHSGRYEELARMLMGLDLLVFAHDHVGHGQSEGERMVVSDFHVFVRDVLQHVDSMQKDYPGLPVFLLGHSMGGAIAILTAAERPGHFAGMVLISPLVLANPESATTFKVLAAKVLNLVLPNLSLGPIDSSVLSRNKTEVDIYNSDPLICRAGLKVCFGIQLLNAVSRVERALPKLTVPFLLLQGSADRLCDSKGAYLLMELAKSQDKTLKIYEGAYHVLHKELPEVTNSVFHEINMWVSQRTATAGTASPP

mutant MGL = target: T2, mutant MGL (Homo sapiens, UniProt Q99685, L169S/L176S); assay: MGL ThermoFluor assay - mutant
T2 sequence (Q99685 1-303 L169S/L176S): T1 sequence (Q99685 1-303) with L169S, L176S
Procedure: The ThermoFluor (TF) assay is a 384-well plate-based binding assay that measures thermal stability of proteins^1,2. […] TF dye used in all experiments was 1,8-ANS (Invitrogen: A-47). Final TF assay conditions used for MGL studies were 0.07 mg/ml of mutant MGL, 100 μM ANS, 200 mM NaCl, 0.001% Tween-20 in 50 mM PIPES (pH=7.0).
Screening compound plates contained 100% DMSO compound solutions at a single concentration. […] Columns 12 and 24 were used as DMSO reference and contained no compound. […] Following compound dispension, protein and dye solutions were added to achieve the final assay volume of 3 μL.
Bar-coded assay plates were robotically loaded onto a thermostatically controlled PCR-type thermal block and then heated from 40 to 90° C. degrees at a ramp-rate of 1° C./min for all experiments. Fluorescence was measured by continuous illumination with UV light (Hamamatsu LC6), supplied via fiber optics and filtered through a band-pass filter (380-400 nm; >60D cutoff). Fluorescence emission of the entire 384-well plate was detected by measuring light intensity using a CCD camera (Sensys, Roper Scientific) filtered to detect 500±25 nm, resulting in simultaneous and independent readings of all 384 wells. A single image with 20-sec exposure time was collected at each temperature, and the sum of the pixel intensity in a given area of the assay plate was recorded vs temperature and fit to standard equations to yield the Tm^1. • 1.
For some experiments, quantitative NMR spectroscopy (qNMR) was used to measure concentration of the initial 100% DMSO compound solutions and, using the same fitting method, qKd values were determined

MGL = target: T3, MGL (Rattus norvegicus, UniProt Q8R431); assay: 2-AG accumulation assay in rat brain homogenate; type: biochemical; settings: compound 1 μM, percent vehicle = 2-AG accumulation with compound / in vehicle x 100, read-out: Rat Brain 2AG % VehCntrl (%) @1 μM
T3 construct: one g rat brain was homogenized using a Polytron homogenizer; from tissue; host or cells: rat brain homogenate
T3 sequence (Q8R431 1-303): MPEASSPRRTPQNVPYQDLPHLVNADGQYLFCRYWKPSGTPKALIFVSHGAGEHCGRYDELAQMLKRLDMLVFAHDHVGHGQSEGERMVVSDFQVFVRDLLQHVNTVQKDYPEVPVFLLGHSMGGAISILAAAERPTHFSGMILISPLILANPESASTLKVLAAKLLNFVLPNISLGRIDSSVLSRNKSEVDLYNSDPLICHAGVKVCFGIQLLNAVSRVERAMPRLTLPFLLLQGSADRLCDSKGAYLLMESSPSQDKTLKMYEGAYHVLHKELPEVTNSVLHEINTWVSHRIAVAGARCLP

rat = assay: CFA-induced paw radiant heat hypersensitivity; type: in vivo; settings: 30 mg/kg p.o., HPβCD, last time point 300 min, group mean values
Procedure: Each rat was placed in a test chamber on a warm glass surface and allowed to acclimate for approximately 10 min. A radiant thermal stimulus (beam of light) was then focused through the glass onto the plantar surface of each hind paw in turn. The thermal stimulus was automatically shut off by a photoelectric relay when the paw was moved or when the cut-off time was reached (20 sec for radiant heat at ˜5 amps). An initial (baseline) response latency to the thermal stimulus was recorded for each animal prior to the injection of complete Freund's adjuvant (CFA). 24 h following intraplantar CFA injection, the response latency of the animal to the thermal stimulus was then re-evaluated and compared to the animal's baseline response time. […] Post-compound treatment withdrawal latencies were assessed at fixed time intervals, typically 30, 60, 120, 180, and 300 min.
The percent reversal (% R) of hypersensitivity was calculated in one of two different ways: 1) using group mean values or 2) using individual animal values. […]
Method 1. For all compounds, the % R of hypersensitivity was calculated using the mean value for groups of animals at each time point according to the following formula: % reversal=[(group treatment response−group CFA response)/(group baseline response−group CFA response)]×100 Results are given for the maximum % reversal observed for each compound at any time point tested. […]

IC50 [1]	Kd (mutant MGL)	Structure (SMILES)	further results
< 0.005 µM	0.002 µM	O=C(c1ccc(-c2cccc(C(F)(F)F)c2)cc1)N1CC(N2CCN(C(=O)c3ccc(F)s3)CC2)C1 [Cpd 1336, 1-[(5-Fluorothiophen-2-yl)carbonyl]-4-(1-{[3′-(trifluoromethyl)biphenyl-4-yl]carbonyl}azetidin-3-yl)piperazine]	–
–	–	O=C(c1ccc[nH]1)N1CC(N2CCN(C(=O)c3cc4cc(C(F)(F)F)ccc4s3)CC2)C1 [Cpd 722, 1-[1-(1H-Pyrrol-2-ylcarbonyl)azetidin-3-yl]-4-{[5-(trifluoromethyl)-1-benzothiophen-2-yl]carbonyl}piperazine]	activity at 1 µM (MGL): 240%
0.049 µM	0.048 µM	O=C(c1ccccc1)N1CCN(C2CN(C(=O)c3ccc4c(c3)c(F)cn4-c3ccc(F)cc3)C2)CC1 [Cpd 574, 3-Fluoro-1-(4-fluorophenyl)-5-({3-[4-(phenylcarbonyl)piperazin-1-yl]azetidin-1-yl}carbonyl)-1H-indole]	–
0.235 µM	0.025 µM	Cc1cn(-c2ccc(F)c(F)c2)c2ccc(C(=O)N3CCN(C4CN(C(=O)c5ccc[nH]5)C4)CC3)cc12 [Cpd 1219, 1-(3,4-Difluorophenyl)-3-methyl-5-({4-[1-(1H-pyrrol-2-ylcarbonyl)azetidin-3-yl]piperazin-1-yl}carbonyl)-1H-indole]	–
< 0.005 µM	0.04 µM	O=C(c1ccc2c(ccn2-c2ccc(C(F)(F)F)cc2)c1)N1CCN(C2CN(C(=O)c3cscn3)C2)CC1 [Cpd 1337, 5-({4-[1-(1,3-Thiazol-4-ylcarbonyl)azetidin-3-yl]piperazin-1-yl}carbonyl)-1-[4-(trifluoromethyl)phenyl]-1H-indole]	–
–	–	C/C(=C\c1ccc(Cl)cc1)c1c(C)c(C(=O)N2CC(N3CCN(C(=O)c4nccs4)CC3)C2)nn1-c1ccc(Cl)cc1Cl [Cpd 1010]	inhibition in vivo at 30 mg/kg (rat; Rattus norvegicus, po, 5 h, read-out: Method 1: peak % reversal): 23.4%
–	–	O=C(c1ccc(-c2cccc(C(F)(F)F)c2)c(Cl)c1)N1CC(N2CCN(C(=O)c3cscn3)CC2)C1 [Cpd 1102]	Method 1: peak % reversal (rat): 38%

Structure (SMILES)	IC50 [1]	Kd (mutant MGL)	further results
Cc1nc(C(=O)N2CCN(C3CN(C(=O)c4ccc(-c5cccc(C(F)(F)F)c5)cc4)C3)CC2)cs1 [Cpd 1217, 1-[(2-Methyl-1,3-thiazol-4-yl)carbonyl]-4-(1-{[3′-(trifluoromethyl)biphenyl-4-yl]carbonyl}azetidin-3-yl)piperazine]	0.22 µM	0.104 µM	–
